Assay results taken from patent publication US11186577B2, “Vasopressin receptor antagonists and products and methods related thereto” (BlackThorn Therapeutics, Inc., priority 2017, dated 2021).

Legend:
[1] = biological target: human Oxytocin Receptor (hOTR) (Homo sapiens (Human), UniProt P30559); experiment: Oxytocin receptor antagonist assay (oxytocin-evoked calcium, FLIPR, CHEM-1-hOTR cells); assay type: cell-based; details: read-out: OT IC50
Procedure, shortened: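 Oxytocin-evoked intracellular calcium rise measured by FLIPR^TETRA fluorescence (Calcium-6 dye, 3 min read) in CHEM-1-hOTR cells. Test compounds, 10-point 1:3 dilutions, were added 15 min at 37 °C before an EC80 oxytocin challenge (EC80 set each assay day); buffer HBSS with 20 mM HEPES.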

[2] = system: wild-type (WT) MDCK cells; experiment: MDR1-MDCK effective efflux assay (Transwell, 10 μM, 1 hour), wild-type MDCK cells; assay type: in vitro ADME; details: MDCK
Procedure, shortened: (§1)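 Wild-type and MDR1-MDCK monolayers cultured 3 days were dosed with compound at 10 μM (0.1% DMSO) in HBSS/25 mM HEPES pH 7.4, in both A>B and B>A directions, for 1 h at 37 °C. Samples were quantified by LC-MS/MS to give Papp and efflux ratio. Effective efflux ratio = ER(MDR1-MDCK)/ER(wild-type); Lucifer Yellow checked monolayer integrity.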

[3] = as above; assay type: in vitro ADME; details: dog, MDCK, pH 7.4, Papp AB WT
Procedure, shortened: as §1

MDR1-MDCK cells = experiment: MDR1-MDCK effective efflux assay (Transwell, 10 μM, 1 hour), MDR1-MDCK cells; assay type: in vitro ADME; details: MDCK-MDR1
Procedure, shortened: as §1

[4] = biological target: human Arginine Vasopressin Receptor V2 (AVPR2) (Homo sapiens (Human), UniProt P30518); experiment: Vasopressin V2 receptor antagonist assay (cAMP TR-FRET, 1321N1 cells); assay type: cell-based
Chain of human Arginine Vasopressin Receptor V2 (AVPR2) (P30518 whole entry): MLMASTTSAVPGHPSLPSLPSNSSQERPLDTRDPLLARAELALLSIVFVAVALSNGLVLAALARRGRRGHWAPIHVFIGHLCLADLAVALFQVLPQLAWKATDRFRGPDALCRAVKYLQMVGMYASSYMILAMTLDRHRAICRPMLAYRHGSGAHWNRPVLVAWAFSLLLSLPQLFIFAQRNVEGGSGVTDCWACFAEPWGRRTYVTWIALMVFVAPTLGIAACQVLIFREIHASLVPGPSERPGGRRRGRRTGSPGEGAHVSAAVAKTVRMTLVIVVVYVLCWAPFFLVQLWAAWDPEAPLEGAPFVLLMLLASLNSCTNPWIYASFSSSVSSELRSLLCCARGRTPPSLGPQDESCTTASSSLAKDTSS

Chain of human Oxytocin Receptor (hOTR) (P30559 whole entry): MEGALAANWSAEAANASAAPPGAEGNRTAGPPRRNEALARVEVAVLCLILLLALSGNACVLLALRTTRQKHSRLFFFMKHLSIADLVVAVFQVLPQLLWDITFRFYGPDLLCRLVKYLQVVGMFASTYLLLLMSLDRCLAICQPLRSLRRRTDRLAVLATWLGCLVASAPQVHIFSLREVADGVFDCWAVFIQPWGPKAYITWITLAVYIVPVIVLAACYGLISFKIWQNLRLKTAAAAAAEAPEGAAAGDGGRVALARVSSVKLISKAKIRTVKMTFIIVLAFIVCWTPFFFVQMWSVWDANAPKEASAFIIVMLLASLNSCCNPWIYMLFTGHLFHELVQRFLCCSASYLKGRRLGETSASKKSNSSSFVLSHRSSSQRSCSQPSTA

Row | Compound | IC50 [1] | WT ER [2] | Papp A→B at 1 h, 10 μM [3] | MDR1 EER (MDR1-MDCK cells) | MDR1 ER (MDR1-MDCK cells) | IC50 [4]
1 | CC1c2nnc(C3CC4(C3)CN(c3ncccn3)C4)n2-c2ccc(Cl)cc2CN1C(=O)OC1CC1 (stereo not drawn) [compound 171] | > 1000 nM | ++++ | > 20 ×10⁻⁶ cm/s | + | + | > 1000 nM
2 | CCOC(=O)N1Cc2cc(Cl)ccc2-n2c(C3CC4(C3)CN(c3ncc(F)cn3)C4)nnc2C1C (stereo not drawn) [compound 172] | > 1000 nM | ++++ | > 20 ×10⁻⁶ cm/s | ++ | ++ | > 1000 nM
3 | CC1c2nnc(C3CC4(C3)CN(c3cnccn3)C4)n2-c2ccc(Cl)cc2CN1C(=O)C1(F)CC1 (stereo not drawn) [compound 177] | > 1000 nM | +++ | > 20 ×10⁻⁶ cm/s | + | + | > 1000 nM
4 | CC1c2nnc(C3CC4(C3)CN(c3ncc(F)cn3)C4)n2-c2ccc(Cl)cc2CN1C(=O)OC(CF)CF (stereo not drawn) [compound 194] | > 1000 nM | ++++ | 10 to 20 ×10⁻⁶ cm/s | + | + | > 1000 nM
